Assay results: patent publication US20010046478A1, “Antiinfective combinations and their use for the topical treatment of fungal infections of the toenails and fingernails” (priority 2000, published 2001)

Tests used:
[1] = Amount of antimycotic in the nail after topical application of the lacquer compositions, HPLC after extraction of distal nail material; format: in vivo, human
Description: The amount of antimycotic in the nail after application of the compositions according to the invention was determined by HPLC measurements after extraction of distal nail material obtained on cutting the nails of volunteers.
After treatment 2× a week for 6 weeks, the values found for the composition of Example 3 were as follows:
After treatment 2× a week for 2 weeks, the values found for the composition of Example 4 were as follows: […]

[2] = oral administration of 100 mg of itraconazole each day for 3 months; cited from earlier work
[3] = composition of Example 3, topical, treatment 2x a week for 6 weeks, distal nail material of volunteers

In the case of `Cc1cc(C2CCCCC2)n(O)c(=O)c1` [ciclopirox, 6-cyclohexyl-1-hydroxy-4-methyl-2(1H)-pyridone], the “amount of antimycotic in the nail” value [1, 3] is reported as 140 μg/g of nail and the “amount of antimycotic in the nail” value ([1]; composition of Example 4, topical, treatment 2x a week for 2 weeks, distal nail material of volunteers) is reported as 92 μg/g of nail.

In the case of `OC(Cn1cncn1)(Cn1cncn1)c1ccc(F)cc1F` [fluconazole, α-(2,4-difluorophenyl)-α-(1H-1,2,4-triazol-1-ylmethyl)-1H-1,2,4-triazol-1-ethanol], the “amount of antimycotic in the nail” value ([1]; human, in vivo, 2 weeks) is reported as 17 μg/g of nail.

In the case of `CCC(C)n1ncn(-c2ccc(N3CCN(c4ccc(OCC5COC(Cn6cncn6)(c6ccc(Cl)cc6Cl)O5)cc4)CC3)cc2)c1=O` (centres unmarked) [itraconazole], the “itraconazole concentration in the distal nail plate” value [2] is given as 100 ng/g of nail and the “amount of antimycotic in the nail” value [1, 3] is given as 800 ng/g of nail.
